Test results from ChEMBL document CHEMBL1122367, “Synthesis and antihypertensive activity of a series of spiro[1,3,4,6,7,11b-hexahydro-2H-benzo[a]quinolizine-2,5'-oxazolidin-2'-one]s” (1983).

Experiments:
Rattus norvegicus [1] = test: Percentage fall in systolic blood pressure in spontaneously hypertensive rats 3h after 50 mg/kg p.o. administration; Not significant.; type: functional, organism-based; set-up: dose 50 mg/kg; details: Artery, at 50 mg/kg
Rattus norvegicus [2] = test: Antihypertensive activity as percentage fall in systolic blood pressure in spontaneously hypertensive rats 4 hr after 50 mg/kg po administration; type: functional, Artery
Rattus norvegicus [3] = test: Antihypertensive activity as percentage fall in systolic blood pressure in spontaneously hypertensive rats 1 hr after 50 mg/kg po administration; type: functional, Artery
Rattus norvegicus [4] = test: Percentage fall in systolic blood pressure in spontaneously hypertensive rats 2 hr after 50 mg/kg p.o. administration; Not significant.; type: functional, organism-based; set-up: dose 50 mg/kg; details: Artery, at 50 mg/kg
Rattus norvegicus [5] = test: Antihypertensive activity as percentage fall in systolic blood pressure in spontaneously hypertensive rats 4 hr after 25 mg/kg po administration;NS means nonsignificant difference between treated and control group; type: functional, organism-based; set-up: dose 25 mg/kg; details: Artery, at 25 mg/kg
Rattus norvegicus [6] = test: Antihypertensive activity as percentage fall in systolic blood pressure in spontaneously hypertensive rats 4 hr after 50 mg/kg po administration; NS means nonsignificant difference between treated and control group; type: functional, organism-based; set-up: dose 50 mg/kg; details: Artery, at 50 mg/kg
Rattus norvegicus [7] = test: Percentage fall in systolic blood pressure in spontaneously hypertensive rats 1 hr after 50 mg/kg p.o. administration; Not significant.; type: functional, organism-based; set-up: dose 50 mg/kg; details: Artery, at 50 mg/kg
Rattus norvegicus [8] = test: Antihypertensive activity as percentage fall in systolic blood pressure in spontaneously hypertensive rats 3h after 25 mg/kg po administration;NS means nonsignificant difference between treated and control group; type: functional, organism-based; set-up: dose 25 mg/kg; details: Artery, at 25 mg/kg
Rattus norvegicus [9] = test: Antihypertensive activity as percentage fall in systolic blood pressure in spontaneously hypertensive rats 3h after 50 mg/kg po administration; type: functional, Artery
Rattus norvegicus [10] = test: Percentage fall in systolic blood pressure in spontaneously hypertensive rats 2 hr after 50 mg/kg p.o. administration.; type: functional, Artery; details: route oral
Rattus norvegicus [11] = test: Antihypertensive activity as percentage fall in systolic blood pressure in spontaneously hypertensive rats 1 hr after 25 mg/kg po administration; type: functional, Artery
Rattus norvegicus [12] = test: Antihypertensive activity as percentage fall in systolic blood pressure in spontaneously hypertensive rats 2 hr after 25 mg/kg po administration; type: functional, Artery
Rattus norvegicus [13] = test: Antihypertensive activity as percentage fall in systolic blood pressure in spontaneously hypertensive rats 4 hr after 25 mg/kg po administration; type: functional, Artery
Rattus norvegicus [14] = test: Antihypertensive activity as percentage fall in systolic blood pressure in spontaneously hypertensive rats 2 hr after 25 mg/kg po administration;NS means nonsignificant difference between treated and control group; type: functional, organism-based; set-up: dose 25 mg/kg; details: Artery, at 25 mg/kg

COc1cc2c(cc1OC)[C@@H]1C[C@]3(CNC(=O)O3)[C@@H](Cc3ccccc3)CN1CC2
Fall (Rattus norvegicus [1]): Not significant
Fall (Rattus norvegicus [2]): 19%
Fall (Rattus norvegicus [3]): 27%
Fall (Rattus norvegicus [4]): Not significant

CC[C@H]1CN2CCc3cc(OC)c(OC)cc3[C@@H]2C[C@]12CNC(=O)O2 [listing 1 of 2 here]
Fall (Rattus norvegicus [1]): Not significant
Fall (Rattus norvegicus [5]): Not significant
Fall (Rattus norvegicus [6]): Not significant
Fall (Rattus norvegicus [7]): Not significant
Fall (Rattus norvegicus [4]): Not significant
Fall (Rattus norvegicus [8]): Not significant

CCCC[C@H]1CN2CCc3cc(OC)c(OC)cc3[C@@H]2C[C@]12CNC(=O)O2
Fall (Rattus norvegicus [9]): 13%
Fall (Rattus norvegicus [2]): 13%
Fall (Rattus norvegicus [3]): 34%
Fall (Rattus norvegicus [10]): 21%

CC[C@H]1CN2CCc3cc(OC)c(OC)cc3[C@@H]2C[C@]12CNC(=O)O2 [listing 2 of 2 here]
Fall (Rattus norvegicus [9]; 50 mg/kg): 33%
Fall (Rattus norvegicus [2]; 50 mg/kg): 28%
Fall (Rattus norvegicus [11]): 44%
Fall (Rattus norvegicus [3]; 50 mg/kg): 52%
Fall (Rattus norvegicus [12]): 30%
Fall (Rattus norvegicus [10]; 50 mg/kg): 40%

CN1C[C@@]2(CCN3CCc4ccccc4[C@@H]3C2)OC1=O
Fall (Rattus norvegicus [1]): Not significant
Fall (Rattus norvegicus [6]): Not significant
Fall (Rattus norvegicus [7]): Not significant
Fall (Rattus norvegicus [4]): Not significant

C[C@H]1CN2CC[C@@]3(CNC(=O)O3)C[C@H]2c2ccccc21
Fall (Rattus norvegicus [1]): Not significant
Fall (Rattus norvegicus [6]): Not significant
Fall (Rattus norvegicus [7]): Not significant
Fall (Rattus norvegicus [4]): Not significant

CCN1C[C@@]2(CCN3CCc4cc(OC)c(OC)cc4[C@@H]3C2)OC1=O
Fall (Rattus norvegicus [1]): Not significant
Fall (Rattus norvegicus [6]): Not significant
Fall (Rattus norvegicus [3]): 31%
Fall (Rattus norvegicus [4]): Not significant

CC[C@H]1CN2CCc3cc(OC)c(OC)cc3[C@@H]2C[C@]12CNC(=O)O2 (racemic)
Fall (Rattus norvegicus [9]; 50 mg/kg): 29%
Fall (Rattus norvegicus [2]; 50 mg/kg): 33%
Fall (Rattus norvegicus [3]; 50 mg/kg): 45%
Fall (Rattus norvegicus [10]; 50 mg/kg): 37%

CC[C@H]1CN2CCc3cc4c(cc3[C@@H]2C[C@]12CNC(=O)O2)OCO4
Fall (Rattus norvegicus [1]): Not significant
Fall (Rattus norvegicus [6]): Not significant
Fall (Rattus norvegicus [7]): Not significant
Fall (Rattus norvegicus [4]): Not significant

CCCCN1C[C@]2(CCN3CCc4cc(OC)c(OC)cc4[C@@H]3C2)OC1=O
Fall (Rattus norvegicus [1]): Not significant
Fall (Rattus norvegicus [6]): Not significant
Fall (Rattus norvegicus [7]): Not significant
Fall (Rattus norvegicus [4]): Not significant

CC1Cc2ccccc2[C@@H]2C[C@@]3(CCN12)CNC(=O)O3 (stereo partly drawn)
Fall (Rattus norvegicus [1]): Not significant
Fall (Rattus norvegicus [6]): Not significant
Fall (Rattus norvegicus [7]): Not significant
Fall (Rattus norvegicus [4]): Not significant

CC[C@H]1CN2CCc3cc(OC)c(OC)cc3[C@@H]2C[C@@]12OC(=O)N[C@H]2CC
Fall (Rattus norvegicus [9]): 30%
Fall (Rattus norvegicus [2]): 24%
Fall (Rattus norvegicus [3]): 43%
Fall (Rattus norvegicus [10]): 48%

COc1cc2c(cc1OC)[C@@H]1C[C@]3(CCN1CC2)CN(C(C)C)C(=O)O3
Fall (Rattus norvegicus [1]): Not significant
Fall (Rattus norvegicus [6]): Not significant
Fall (Rattus norvegicus [3]): 29%
Fall (Rattus norvegicus [10]): 16%

CCCCOc1cc2c(cc1OC)CCN1CC[C@@]3(CNC(=O)O3)C[C@@H]21
Fall (Rattus norvegicus [1]): Not significant
Fall (Rattus norvegicus [6]): Not significant
Fall (Rattus norvegicus [3]): 15%
Fall (Rattus norvegicus [4]): Not significant

CCOc1cc2c(cc1OC)[C@@H]1C[C@]3(CNC(=O)O3)[C@@H](CC)CN1CC2
Fall (Rattus norvegicus [9]): 17%
Fall (Rattus norvegicus [6]): Not significant
Fall (Rattus norvegicus [3]): 39%
Fall (Rattus norvegicus [10]): 32%

O=C1NC[C@]2(CCN3CCc4ccccc4[C@@H]3C2)O1
Fall (Rattus norvegicus [1]): Not significant
Fall (Rattus norvegicus [6]): Not significant
Fall (Rattus norvegicus [7]): Not significant
Fall (Rattus norvegicus [4]): Not significant

CC[C@H]1NC(=O)O[C@]12CCN1CCc3cc(OC)c(OC)cc3[C@@H]1C2
Fall (Rattus norvegicus [9]): 25%
Fall (Rattus norvegicus [2]): 25%
Fall (Rattus norvegicus [3]): 41%
Fall (Rattus norvegicus [10]): 38%

C[C@@H]1CN2CC[C@@]3(CNC(=O)O3)C[C@H]2c2ccccc21
Fall (Rattus norvegicus [1]): Not significant
Fall (Rattus norvegicus [6]): Not significant
Fall (Rattus norvegicus [3]): 16%
Fall (Rattus norvegicus [4]): Not significant

CCCN1C[C@]2(CCN3CCc4cc(OC)c(OC)cc4[C@@H]3C2)OC1=O
Fall (Rattus norvegicus [1]): Not significant
Fall (Rattus norvegicus [6]): Not significant
Fall (Rattus norvegicus [7]): Not significant
Fall (Rattus norvegicus [4]): Not significant

COc1cc2c(cc1OC)[C@@H]1C[C@]3(CCN1CC2)CN(C(C)(C)C)C(=O)O3
Fall (Rattus norvegicus [1]): Not significant
Fall (Rattus norvegicus [6]): Not significant
Fall (Rattus norvegicus [3]): 39%
Fall (Rattus norvegicus [10]): 20%

COc1cc2c(cc1OC)[C@@H]1C[C@]3(CNC(=O)O3)[C@@H](c3ccccc3)CN1CC2
Fall (Rattus norvegicus [9]): -9%
Fall (Rattus norvegicus [6]): Not significant
Fall (Rattus norvegicus [7]): Not significant
Fall (Rattus norvegicus [4]): Not significant

COc1cc2c(cc1OC)[C@@H]1C[C@]3(CCN1CC2)CNC(=O)O3
Fall (Rattus norvegicus [1]): Not significant
Fall (Rattus norvegicus [6]): Not significant
Fall (Rattus norvegicus [7]): Not significant
Fall (Rattus norvegicus [4]): Not significant

COc1cc2c(cc1OC(C)C)[C@@H]1C[C@@]3(CCN1CC2)CNC(=O)O3
Fall (Rattus norvegicus [9]): 8%
Fall (Rattus norvegicus [6]): Not significant
Fall (Rattus norvegicus [3]): 19%
Fall (Rattus norvegicus [4]): Not significant

CCC[C@H]1CN2CCc3cc(OC)c(OC)cc3[C@@H]2C[C@]12CNC(=O)O2
Fall (Rattus norvegicus [9]): 17%
Fall (Rattus norvegicus [2]): 16%
Fall (Rattus norvegicus [3]): 41%
Fall (Rattus norvegicus [10]): 27%

CC[C@H]1CN2CCc3ccccc3[C@@H]2C[C@]12CNC(=O)O2
Fall (Rattus norvegicus [1]): Not significant
Fall (Rattus norvegicus [6]): Not significant
Fall (Rattus norvegicus [3]): 25%
Fall (Rattus norvegicus [4]): Not significant

CCCOc1cc2c(cc1OC)CCN1CC[C@@]3(CNC(=O)O3)C[C@@H]21
Fall (Rattus norvegicus [1]): Not significant
Fall (Rattus norvegicus [6]): Not significant
Fall (Rattus norvegicus [7]): Not significant
Fall (Rattus norvegicus [4]): Not significant

COc1cc2c(cc1OC)[C@@H]1C[C@]3(CCN1CC2)CN(C)C(=O)O3
Fall (Rattus norvegicus [1]): Not significant
Fall (Rattus norvegicus [2]): 18%
Fall (Rattus norvegicus [3]): 27%
Fall (Rattus norvegicus [4]): Not significant

CN1C[C@]2(CCN3CCc4ccccc4[C@@H]3C2)OC1=O
Fall (Rattus norvegicus [9]): -12%
Fall (Rattus norvegicus [6]): Not significant
Fall (Rattus norvegicus [7]): Not significant
Fall (Rattus norvegicus [10]): -10%

O=C1NC[C@@]2(CCN3C[C@@H](c4ccccc4)c4ccccc4[C@@H]3C2)O1
Fall (Rattus norvegicus [1]): Not significant
Fall (Rattus norvegicus [6]): Not significant
Fall (Rattus norvegicus [7]): Not significant
Fall (Rattus norvegicus [4]): Not significant

COc1cc2c(cc1OC)[C@@H]1C[C@]3(CNC(=O)O3)[C@@H](C)CN1CC2
Fall (Rattus norvegicus [9]): 37%
Fall (Rattus norvegicus [13]): 15%
Fall (Rattus norvegicus [2]): 25%
Fall (Rattus norvegicus [11]): 27%
Fall (Rattus norvegicus [3]): 47%
Fall (Rattus norvegicus [12]): 19%
Fall (Rattus norvegicus [10]): 41%
Fall (Rattus norvegicus [8]): Not significant

O=C1NC[C@@]2(CCN3CCc4cc5c(cc4[C@@H]3C2)OCO5)O1
Fall (Rattus norvegicus [9]): 14%
Fall (Rattus norvegicus [6]): Not significant
Fall (Rattus norvegicus [3]): 28%
Fall (Rattus norvegicus [4]): Not significant

COc1cc2c(cc1OC)[C@@H]1C[C@@]3(CCN1CC2)CNC(=O)O3
Fall (Rattus norvegicus [9]): 12%
Fall (Rattus norvegicus [1]): Not significant
Fall (Rattus norvegicus [2]): 15%
Fall (Rattus norvegicus [6]): Not significant
Fall (Rattus norvegicus [11]): 22%
Fall (Rattus norvegicus [3]): 20%
Fall (Rattus norvegicus [7]): Not significant
Fall (Rattus norvegicus [12]): 19%
Fall (Rattus norvegicus [10]): 13%
Fall (Rattus norvegicus [4]): Not significant
Fall (Rattus norvegicus [8]): Not significant

O=C1NC[C@@]2(CCN3CCc4ccccc4[C@@H]3C2)O1
Fall (Rattus norvegicus [9]): 14%
Fall (Rattus norvegicus [13]): 25%
Fall (Rattus norvegicus [2]): 12%
Fall (Rattus norvegicus [11]): 20%
Fall (Rattus norvegicus [3]): 22%
Fall (Rattus norvegicus [14]): Not significant
Fall (Rattus norvegicus [10]): 26%
Fall (Rattus norvegicus [8]): Not significant

CCOc1cc2c(cc1OC)CCN1C[C@H](CC)[C@@]3(CNC(=O)O3)C[C@@H]21
Fall (Rattus norvegicus [9]): 17%
Fall (Rattus norvegicus [6]): Not significant
Fall (Rattus norvegicus [3]): 25%
Fall (Rattus norvegicus [10]): 22%

CC[C@@H]1NC(=O)O[C@]12CCN1CCc3cc(OC)c(OC)cc3[C@@H]1C2
Fall (Rattus norvegicus [9]): 30%
Fall (Rattus norvegicus [2]): 27%
Fall (Rattus norvegicus [3]): 45%
Fall (Rattus norvegicus [10]): 37%

COc1cc2c(cc1OC)[C@@H]1C[C@@]3(CCN1CC2)CN(C)C(=O)O3
Fall (Rattus norvegicus [1]): Not significant
Fall (Rattus norvegicus [2]): 21%
Fall (Rattus norvegicus [3]): 28%
Fall (Rattus norvegicus [10]): 14%
